# Tests used:
# [1] = test system: chemical liver injury (rat alcoholic fatty liver model); test: Protective effect on chemical liver injury (rat alcoholic fatty liver model); type: in vivo, rats; conditions: for AST: serum
# Method: Experimental grouping and dose design: Female SD rats were randomly divided to groups, 10 rats for each group, […], 70 mg·kg^−1, 85 mg·kg^−1, 100 mg·kg^−1, 120 mg·kg^−1, 140 mg·kg^−1, 160 mg·kg^−1, 180 mg·kg^−1, […], together with a negative control group and 50% ethanol model control group. Liver injury model was induced by ethanol (analytical pure).
# Determination of ALT, AST, TG in serum of rats; Determination of SOD, MDA, reduced glutathione (GSH) in liver homogenate.
# Statistics of experimental data: Statistical analysis of experimental data was performed using software package of SPSS 19.0 for windows.
# human brain glioma = test: Inhibition of mice-transplanted human brain glioma; type: in vivo; conditions: for Inhibitmy rate / Tumor weight: 15 days, mice
# Method: Human brain glioma cell lines were obtained from Key Laboratory of Transplant Engineering and Immunology, Ministry of health, West China Hospital, Sichuan University.
# (1) Model establishment Mice were divided into groups, 10 mice for each group. The solution of brain glioblastoma cell lines was suitably diluted, and inoculated in cortex of left temporal lobe of mice, respectively.
# Administration and intervention 24 h after inoculation, mice in each group were administrated by intraperitoneal injection. […] Each group was administrated for successive 15 days.
# Determination of tumor inhibitory rate On the last day, the administration was stopped, and all mice were sacrificed and dissected. Tumor tissues were stripped and weighed. Tumor inhibitory rate %=(The mean tumor weight of control group−The mean tumor weight of drug groups)[The mean tumor weight of control group]×100%.
# Statistical method The variance analysis of data was performed using the statistical program software package (SPSS13.0 for Windows), and p<0.05 was considered to be a statistically significant difference.
# H22 liver cancer = test: Inhibition of KM mice-transplanted tumor of H22 liver cancer; type: in vivo
# Method: (1) Animal Kunming mice, half male and half female, body weight 16˜27 g.
# Cell Lines H22 cell lines were mice liver cancer cells, and were subjected to suspension growth in RPMI-1640 media containing 10% calf serum, 100 U·ml^−1 penicillin, 100 μg·ml^−1 streptomycin, and cultured in an incubator at 37° C. under 5% CO2, followed by changing the medium and subculturing every two or three days.
# Cell Culture H22 cells in exponential phase of growth were collected, centrifugated at 1000 rpm for 5 min, and washed twice. Viable cells were counted by trypan blue staining. The cells were quickly inoculated in abdominal cavity of KM mice, and after 7˜10 days, ascites were drawn and subcutaneously inoculated at the left forelimb armpit of mice at 0.2 ml/animal (containing about 2×10^7 cells). When tumor grew to 1 cm×1 cm×1 cm, mice were used in experiment. Mice tumors were aseptically stripped, and washed with Hank's solution thrice, to remove blood, fat and necrotic tissues. Tumors were cut to broken pieces of 1 mm×1 mm×1 mm, and washed with Hank's solution twice, to which physiological saline was added at a ratio of (1 g:3 ml), and then ground in a glass homogenizer and filtered by 80-100 mesh sieve to make a suspension of single cell. Viable cells were counted by trypan blue staining.
# On the second day after inoculation, a dosage of 0.2 ml·10 g^−1 was administrated by intravenous injection (iv), once a day. When the average tumor weight in negative group was more than 1.0 g (tumor volume being about 0.5 cm^3), the experiment was stopped, and mice were sacrificed by cervical vertebrae removal and weighed. Tumors were stripped to calculate inhibitory rate.
# [2] = 220 mg·kg^−1 intragastric, 30 days, liver homogenate
# [3] = 1 mg·kg^−1 intraperitoneal injection
# [4] = 5 mg·kg^−1 intraperitoneal injection
# [5] = 10 mg·kg^−1 intraperitoneal injection
# [6] = 30 mg·kg^−1 intraperitoneal injection
# [7] = 40 mg·kg^−1 intraperitoneal injection
# [8] = 50 mg·kg^−1 intraperitoneal injection
# [9] = 60 mg·kg^−1 intraperitoneal injection
# [10] = 70 mg·kg^−1 intraperitoneal injection
# [11] = 90 mg·kg^−1 intraperitoneal injection
# [12] = 100 mg·kg^−1 intraperitoneal injection
# [13] = compared with the negative control group, obvious in the dosage groups of 10 mg/kg-60 mg/kg
structure (smiles),measurement,setting,value
O=C(/C=C/c1ccc(O)c(O)c1)O[C@@H]1C[C@](O)(C(=O)O)C[C@@H](O)[C@H]1O [Chlorogenic acid of the present invention],SOD,"[1]; 200 mg·kg^−1 intragastric, 30 days, liver homogenate",36.25 ± 2.87 nmol/mg
same,AST,"[1]; 200 mg·kg^−1 intragastric, 30 days",177.56 ± 4.25 U/L
same,GSH,[1]; [2],17.24 ± 1.89 mg/g
same,SOD,[1]; [2],30.12 ± 2.14 nmol/mg
same,AST,"[1]; 220 mg·kg^−1 intragastric, 30 days",189.98 ± 5.67 U/L
same,inhibitory action on chemical liver injury,[1]; dosage of 50 mg/kg-140 mg/kg had the most obvious effect,obviously inhibitory action
same,Inhibitmy rate,human brain glioma; [3],13.30%
same,Tumor weight,human brain glioma; [3],1.258 ± 0.254 g
same,Inhibitmy rate,human brain glioma; [4],16.06%
same,Tumor weight,human brain glioma; [4],1.218 ± 0.187 g
same,Inhibitmy rate,human brain glioma; [5],52.45%
same,Tumor weight,human brain glioma; [5],0.690 ± 0.128 g
same,Inhibitmy rate,human brain glioma; 20 mg·kg^−1 intraperitoneal injection,70.71%
same,Inhibitmy rate,human brain glioma; [6],68.57%
same,Tumor weight,human brain glioma; [6],0.456 ± 0.128 g
same,Inhibitmy rate,human brain glioma; [7],62.03%
same,Tumor weight,human brain glioma; [7],0.551 ± 0.087 g
same,Inhibitmy rate,human brain glioma; [8],56.65%
same,Tumor weight,human brain glioma; [8],0.629 ± 0.068 g
same,Inhibitmy rate,human brain glioma; [9],51.69%
same,Tumor weight,human brain glioma; [9],0.701 ± 0.256 g
same,Inhibitmy rate,human brain glioma; [10],31.22%
same,Tumor weight,human brain glioma; [10],0.998 ± 0.212 g
same,Inhibitmy rate,human brain glioma; 80 mg·kg^−1 intraperitoneal injection,18.06%
same,Inhibitmy rate,human brain glioma; [11],13.23%
same,Tumor weight,human brain glioma; [11],1.259 ± 0.124 g
same,Inhibitmy rate,human brain glioma; [12],8.27%
same,Tumor weight,human brain glioma; [12],1.331 ± 0.156 g
same,inhibitory action on mice-transplanted tumor of human brain glioma,human brain glioma; [13],obviously inhibitory action
same,Inhibitory rate,H22 liver cancer; 1 mg·kg^−1 iv once a day,8.8%
same,Tumor weight,H22 liver cancer; 1 mg·kg^−1 iv once a day,2.141 ± 0.333 g
same,Inhibitory rate,H22 liver cancer; 5 mg·kg^−1 iv once a day,24.7%
same,Tumor weight,H22 liver cancer; 5 mg·kg^−1 iv once a day,1.768 ± 0.667 g
same,Inhibitory rate,H22 liver cancer; 10 mg·kg^−1 iv once a day,46.3%
same,Tumor weight,H22 liver cancer; 10 mg·kg^−1 iv once a day,1.261 ± 0.388 g
same,Inhibitory rate,H22 liver cancer; 20 mg·kg^−1 iv once a day,54.8%
same,Inhibitory rate,H22 liver cancer; 30 mg·kg^−1 iv once a day,67.9%
same,Tumor weight,H22 liver cancer; 30 mg·kg^−1 iv once a day,0.754 ± 0.071 g
same,Inhibitory rate,H22 liver cancer; 40 mg·kg^−1 iv once a day,72.2%
same,Tumor weight,H22 liver cancer; 40 mg·kg^−1 iv once a day,0.653 ± 0.238 g
same,Inhibitory rate,H22 liver cancer; 50 mg·kg^−1 iv once a day,57.5%
same,Tumor weight,H22 liver cancer; 50 mg·kg^−1 iv once a day,0.998 ± 0.207 g
same,Inhibitory rate,H22 liver cancer; 60 mg·kg^−1 iv once a day,42.9%
same,Tumor weight,H22 liver cancer; 60 mg·kg^−1 iv once a day,1.341 ± 0.356 g
same,Inhibitory rate,H22 liver cancer; 70 mg·kg^−1 iv once a day,31.9%
same,Inhibitory rate,H22 liver cancer; 80 mg·kg^−1 iv once a day,24.1%
same,Tumor weight,H22 liver cancer; 80 mg·kg^−1 iv once a day,1.782 ± 0.122 g
same,Inhibitory rate,H22 liver cancer; 90 mg·kg^−1 iv once a day,16.7%
same,Tumor weight,H22 liver cancer; 90 mg·kg^−1 iv once a day,1.956 ± 0.581 g
same,Inhibitory rate,H22 liver cancer; 100 mg·kg^−1 iv once a day,11.5%
same,Tumor weight,H22 liver cancer; 100 mg·kg^−1 iv once a day,2.078 ± 0.326 g
same,inhibitory action on KM mice-transplanted tumor of H22 liver cancer,H22 liver cancer; [13],obviously inhibitory action
